As a reminder, the inhibition is the relative decrease from the control value, in per cent. As usually defined, the IC50 is the concentration that inhibits the measured activity by half. The term melting point denotes the temperature of the solid-liquid transition.

For one data set, the system named is rabbit aortic rings. The data set is described as follows: Assay B: In Vitro Vascular Smooth Muscle Response for AII. It is filed as cell-based. The conditions noted are these: antagonist at 10^-5 M, two values per cell = aorta rings from two rabbits; for Kb: Oryctolagus cuniculus, read-out: Assay B pA2 (converted). As for the experimental part: Assay B: In Vitro Vascular Smooth Muscle-Response for ATT
Compounds of Formula I were tested for antagonist activity in rabbit aortic rings. Male New Zealand white rabbits (2–2.5 kg) were sacrificed using an overdose of pentobarbital and exsanguinated via the carotid arteries. The thoracic aorta was removed, cleaned of adherent fat and connective tissue and then cut into 3-mm ring segments. The endothelium was removed from the rings by gently sliding a rolled-up piece of filter paper into the vessel lumen. The rings were then mounted in a water-jacketed tissue bath, maintained at 37° C., between moveable and fixed ends of a stainless steel wire with the moveable end attached to an FT03 Grass transducer coupled to a Model 7D Grass Polygraph for recording isometric force responses. The bath was filled with 20 ml of oxygenated (95% oxygen/5% carbon dioxide) Krebs solution of the following composition […]: 130 NaCl, 15 NaHCO3, 15 KCl, 1.2 NaH2PO4, 1.2 MgSO4, 2.5 CaCl2, and 11.4 glucose. The preparations were equilibrated for one hour before approximately one gram of passive tension was placed on the rings. Angiotensin II concentration-response curves were then recorded (3×10^−10 to 1×10–5 M). Each concentration of AII was allowed to elicit its maximal contraction, and then AII was washed out repeatedly for 30 minutes before rechallenging with a higher concentration of AII. Aorta rings were exposed to the test antagonist at 10^−5 M for 5 minutes before challenging with AII. Adjacent segments of the same aorta ring were used for all concentration-response curves in the presence or absence of the test antagonist. The effectiveness of the test compound was expressed in terms of pA2 values and were calculated according to H. O. Schild [Br. J. Pharmacol. Chemother., 2, 189–206 (1947)]. […] Each test antagonist was evaluated in aorta rings from two rabbits.

The test system of another data set is AII pressor response. The data set is described as follows: Assay C: In Vivo Intraduodenal Pressor Assay Response for AII Antagonists. Also noted: species or system Sprague-Dawley rats. As for the experimental part: Assay C: In Vivo Intraduodenal Pressor Assay Response for AII Antagonists
Male Sprague-Dawley rats weighing 225–300-grams were anesthetized with Inactin (100 mg/kg, i.p.) and catheters were implanted into the trachea, femoral artery, femoral vein and duodenum. Arterial pressure was recorded from the femoral artery catheter on a Gould chart recorder (Gould, Cleveland, Ohio). The femoral vein catheter was used for injections of angiotensin II, mecamylamine and atropine. The tracheal catheter allow for airway patency, and the duodenal catheter was used for intraduodenal (i.d.) administration of test compounds. After surgery, the rats were allowed to equilibrate for 30 minutes. Mecamylamine (3 mg/kg, 0.3 ml/kg) and atropine (400 ug/kg, 0.3 ml/kg) were then given i.v. to produce ganglion blockade. These compounds were administered every 90 minutes throughout the test procedure. Angiotensin II was given in bolus does i.v. (30 ng/kg in saline with 0.5% bovine serum albumin, 0.1 ml/kg) every 10 minutes three times or until the increase in arterial pressure produced was within 3 mmHg for two consecutive AII injections. The last two AII injections were averaged and were taken as the control AII pressor response. […] Angiotensin II injections were then given 5, 10, 20, 30, 45, 60, 75, 90, and 120 minutes after administration of the test compound and response of arterial pressure was monitored. The response to AII was calculated as percent of the control response and then the percent inhibition is calculated as 100 minus the percent control response. Duration of action of a test compound was defined as the time from peak percent inhibition to 50% of peak. One compound at one dose was tested in each rat. Each test compound was tested in two rats and the values for the two rats were averaged.

The target in data set [1] is T1, smooth muscle angiotensin II receptor.
T1 construct: Rat uterine membranes were prepared from fresh tissue
Description: Assay A: Angiotensin II Binding Activity. Particulars: rat uterine membrane preparation, displacement of 125I-AII. As for the experimental part:
Assay A: Angiotensin II Binding Activity
Compounds of Formula I were tested for ability to bind to the smooth muscle angiotensin II receptor using a rat uterine membrane preparation. […] Other chemicals were obtained from Sigma Chemical Co. This assay was carried out according to the method of Douglas et al [Endocrinology, 106, 120–124 (1980)]. Rat uterine membranes were prepared from fresh tissue. All procedures were carried out at 4° C. Uteri were stripped of fat and homogenized in phosphate-buffered saline at pH 7.4 containing 5 mM EDTA. The homogenate was centrifuged at 1500×g for 20 min., and the supernatant was recentrifuged at 100,000×g for 60 min. The pellet was resuspended in buffer consisting of 2 mM EDTA and 50 mM Tris-HCl (pH 7.5) to a final protein concentration of 4 mg/ml. […] The reaction was initiated by the addition of membrane protein and the mixture was incubated at 25° C. for 60 min. The incubation was terminated with ice-cold 50 mM Tris-HCl (pH 7.5) and the mixture was filtered to separate membrane-bound labelled peptide from the free ligand. The incubation tube and filter were washed with ice-cold buffer. Filters were assayed for radioactivity in a Micromedic gamma counter. Nonspecific binding was defined as binding in the presence of 10 μM of unlabelled AII. Specific binding was calculated as total binding minus nonspecific binding. […] Binding data were analyzed by a nonlinear least-squares curve fitting program.
For orientation: Displacement assays read how much labelled ligand stays bound in the presence of the test substance.

Setting [2] is: Rattus norvegicus, intraduodenal, 30 mg/kg intraduodenally.
The mark [3] stands for this setting: Rattus norvegicus, intraduodenal, 100 mg/kg intraduodenally.

Turning to `CCCCc1nc(Cl)nn1Cc1ccc(-c2ccccc2C(=O)O)cc1` (single isomer, unassigned) [Example 6, 4′-[(5-butyl-3-chloro-1H-1,2,4-triazol-1-yl)methyl][1,1′-biphenyl]-2-carboxylic acid], the “Assay B pA2” value in the data set on rabbit aortic rings came to 6.82. Besides, in the data set on AII pressor response (100 mg/kg intraduodenally), the “Assay C Duration” value was 120 min.
Consider `CCCCc1nc(CN)nn1Cc1ccc(-c2ccccc2-c2nnn[nH]2)cc1` [Example 3, 5-[4′-[(3-aminomethyl-5-butyl-1H-1,2,4-triazol-1-yl)methyl][1,1′-biphenyl]-2-yl]-1H-tetrazole], for which, in the data set on rabbit aortic rings, the Kb was 2 nM. For the same compound, the figures for the “Assay C Duration” value with AII pressor response (10 mg/kg intragastrically) and in the data set on AII pressor response (30 mg/kg intragastrically) were greater than 180 min and 200^+ min, respectively. This compound had an inhibition at 10 mg/kg in the data set on AII pressor response (Rattus norvegicus, po, 10 mg/kg intragastrically) of 50%. Besides, the inhibition at 30 mg/kg in the data set with AII pressor response (Rattus norvegicus, po, 30 mg/kg intragastrically) worked out at 100%. The IC50 in data set [1] was 5.4 nM.
`CCCCc1nc(CCCN)nn1Cc1ccc(-c2ccccc2-c2nnn[nH]2)cc1` [Example 5, 5-[4′-[[3-(3-aminopropyl)-5-butyl-1H-1,2,4-triazol-1-yl]methyl][1,1′-biphenyl]-2-yl]-1H-tetrazole]: the “Assay C Duration” value in the data set on AII pressor response (30 mg/kg intraduodenally) lay within 20 to 30 min. The same compound had an inhibition at 30 mg/kg in the data set with AII pressor response (setting [2]) of 38%. In data set [1], this compound registered a concentration for half-maximal inhibition (IC50) of 200 nM.
Consider `CCCCc1nc(CC(=O)O)nn1Cc1ccc(-c2ccccc2-c2nnn[nH]2)cc1` [Example 7, 5-[4′-[(5-butyl-3-carboxymethyl-1H-1,2,4-triazol-1-yl)methyl][1,1′-biphenyl]-2-yl]-1H-tetrazole], for which the Kb with rabbit aortic rings was 9.77 nM. The “Assay C Duration” value in the data set with AII pressor response (30 mg/kg intraduodenally) was 130 min. The compound also showed an inhibition at 30 mg/kg in the data set on AII pressor response (setting [2]) of 90%. For the same compound, the IC50 in data set [1] was found to be 84 nM.
Turning to `CCCCc1nc(CCC(=O)O)nn1Cc1ccc(-c2ccccc2-c2nnn[nH]2)cc1` [Example 9, 5-[4′-[[5-butyl-3-(2-carboxyethyl)-1H-1,2,4-triazol-1-yl]methyl][1,1′-biphenyl]-2-yl]-1H-tetrazole], the “Assay C Duration” value with AII pressor response (30 mg/kg intraduodenally) turned out to be 75 min; in the data set with AII pressor response (100 mg/kg intraduodenally), 130 min. For the same compound, the inhibition at 30 mg/kg in the data set with AII pressor response (setting [2]) came to 80%. In the data set on AII pressor response (setting [3]), this compound showed an inhibition at 100 mg/kg of 100%. In data set [1], the IC50 turned out to be 700 nM.
Regarding `CCCCc1nc(C(F)(F)CCC)nn1Cc1ccc(-c2ccccc2C(=O)O)cc1` [Example 10], the “Assay C Duration” value turned out to be 100 min with AII pressor response (3 mg/kg intraduodenally, time from peak percent inhibition to 50% of peak) and 240 min with AII pressor response (30 mg/kg intraduodenally). The compound further displayed an inhibition at 3 mg/kg with AII pressor response (Rattus norvegicus, intraduodenal) of 86%. In addition, in the data set with AII pressor response (setting [2]), at 30 mg/kg the inhibition was 100%.
Regarding `CCCCc1nc(CCC)n(Cc2ccc(-c3ccccc3C(=O)O)cc2)n1` [Example 15, 4′-[(3-butyl-5-propyl-1H-1,2,4-triazol-1-yl)methyl]-[1,1′-biphenyl]-2-carboxylic acid], the Kb in the data set with rabbit aortic rings is 4.9 nM. In data set [1], this compound came in with an IC50 of 16 nM.
The corresponding values for `CCCCc1nc(CCC(C)C)nn1Cc1ccc(-c2ccccc2C(=O)O)cc1` [Example 17, 4′-[(5-butyl-3-isopentyl-1H-1,2,4-triazol-1-yl]methyl)-[1,1′-biphenyl]-2-carboxylic acid] are 2.29 nM and 4 nM.
Regarding `O=C(O)c1ccccc1-c1ccc(Cn2nc(C(F)(F)C(F)(F)C(F)(F)F)nc2C(F)(F)C(F)(F)C(F)(F)F)cc1` [Example 20, 4′-[(3,5-di-perfluoropropyl-1H-1,2,4-triazol-1-yl)methyl][1,1′-biphenyl]-2-carboxylic acid], in the data set with rabbit aortic rings, the Kb is 1290 nM. Moreover, the “Assay C Duration” value in the data set with AII pressor response (100 mg/kg intraduodenally) amounted to 45 min. For the same compound, in the data set on AII pressor response (setting [3]), 100 mg/kg produced 10% inhibition.
For `CCCCc1nc(C(=O)CCC)nn1Cc1ccc(-c2ccccc2-c2nnn[nH]2)cc1` [Example 30], the melting point lay within 150.5 to 152.5 °C.
The same measure, in the same setting: for `CCCCc1nc(C2CCCCC2)n(Cc2ccc(-c3ccccc3-c3nnn[nH]3)cc2)n1` [Example 65, 5-[4′-[(3-butyl-5-cyclohexyl-1H-1,2,4-triazol-1-yl)methyl][1,1′-biphenyl]-2-yl]-1H-tetrazole] the value was 157.5 to 159.5 °C; for `CCCCc1nc(C2CCCCC2)nn1Cc1ccc(-c2ccccc2-c2nnn[nH]2)cc1` [Example 66, 5-[4′-[(5-butyl-3-cyclohexyl-1H-1,2,4-triazol-1-yl)methyl][1,1′-biphenyl]-2-yl]-1H-tetrazole], 125 to 127 °C.

(Values after patent US7132437B2, “Renal-selective biphenylalkyl 1H-substituted-1,2,4-triazole angiotensin II antagonists for treatment of hypertension” (G.D. Searle, priority 1990, dated 2006).)
